Data as given in patent publication US11524966B1 (Valo Early Discovery, Inc., priority 2017, dated 2022).
pIC50: −log10 of the molar value.

What follows are molecules tested against T1, USP28 (His-tagged USP28-FL-mammalian) (Homo sapiens, UniProt Q96RU2) (assay: Ubiquitin-Rhodamine 110 Assay for USP28 Activity, Example A-1(a)). Settings: Ubiquitin-Rhodamine 110 assay, Example A-1(a); read-out: USP28 A-1(a) IC50 range.
T1 construct: Expression of USP28 (1-1077)-TEV-6*His (pTT5 vector); made in house; host or cells: Expi293f cells (pTT5 vector)
T1 sequence (Q96RU2 1-1077): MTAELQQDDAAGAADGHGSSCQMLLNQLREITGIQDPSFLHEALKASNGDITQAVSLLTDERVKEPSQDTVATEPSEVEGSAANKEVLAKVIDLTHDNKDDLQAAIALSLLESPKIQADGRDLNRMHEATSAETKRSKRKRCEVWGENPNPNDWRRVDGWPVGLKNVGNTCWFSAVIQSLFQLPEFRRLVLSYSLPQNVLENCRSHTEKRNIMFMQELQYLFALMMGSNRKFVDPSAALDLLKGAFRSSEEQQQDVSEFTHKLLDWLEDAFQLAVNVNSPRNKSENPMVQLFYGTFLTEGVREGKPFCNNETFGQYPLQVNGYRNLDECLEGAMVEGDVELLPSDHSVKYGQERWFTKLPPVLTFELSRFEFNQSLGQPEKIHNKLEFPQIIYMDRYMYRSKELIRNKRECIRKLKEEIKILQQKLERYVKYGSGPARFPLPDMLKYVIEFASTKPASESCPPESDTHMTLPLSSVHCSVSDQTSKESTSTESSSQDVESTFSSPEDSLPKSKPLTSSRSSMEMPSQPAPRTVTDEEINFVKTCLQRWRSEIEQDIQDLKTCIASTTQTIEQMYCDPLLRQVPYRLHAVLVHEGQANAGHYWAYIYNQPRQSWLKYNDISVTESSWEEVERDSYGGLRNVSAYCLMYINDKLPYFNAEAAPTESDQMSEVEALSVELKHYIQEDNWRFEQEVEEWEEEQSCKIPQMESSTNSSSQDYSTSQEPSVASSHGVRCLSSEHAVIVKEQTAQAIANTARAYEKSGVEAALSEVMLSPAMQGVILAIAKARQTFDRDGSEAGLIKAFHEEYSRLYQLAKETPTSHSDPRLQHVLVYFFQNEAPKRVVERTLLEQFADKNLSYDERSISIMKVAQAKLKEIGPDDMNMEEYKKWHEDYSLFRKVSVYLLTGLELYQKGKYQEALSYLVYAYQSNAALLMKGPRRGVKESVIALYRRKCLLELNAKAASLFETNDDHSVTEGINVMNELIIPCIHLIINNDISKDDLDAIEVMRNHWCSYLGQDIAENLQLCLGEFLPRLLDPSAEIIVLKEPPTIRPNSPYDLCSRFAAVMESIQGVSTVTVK
Format: biochemical
Summary of the method: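 Full-length His-tagged human USP28 (1-1077, Expi293f-expressed), […], with 25 nM Ub-Rh110 (<<Km) in pH 8.0 Tris buffer with BME, BGG, Triton X-100. 10-point dilutions (25 μM-1.3 nM), 45 min at room temperature, citric acid stop, fluorescence 485/535 nm; IC50 by 4-parameter fit.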

| SMILES | pIC50 |
| --- | --- |
| COC[C@H]1CN(c2ccc3c(c2)OC[C@H](NC(=O)c2sc4nc(C)ccc4c2N)C3)CCN1 [Example 157, 3-amino-N-[(3R)-7-[(3R)-3-(methoxymethyl)piperazin-1-yl]-3,4-dihydro-2H-1-benzopyran-3-yl]-6-methylthieno[2,3-b]pyridine-2-carboxamide] | 7.30 to 9.00 |
| Cc1ccc2c(N)c(C(=O)N[C@H]3COc4c(ccc(N5CC6CCC(C5)N6)c4F)C3)sc2n1 [Example 103, 3-amino-N-[(3R)-7-{3,8-diazabicyclo[3.2.1]octan-3-yl}-8-fluoro-3,4-dihydro-2H-1-benzopyran-3-yl]-6-methylthieno[2,3-b]pyridine-2-carboxamide] | 7.30 to 9.00 |
| COC[C@@H]1CN(c2ccc3c(c2)OC[C@H](NC(=O)c2sc4nc(C)ccc4c2N)C3)CCN1 [Example 158, 3-amino-N-[(3R)-7-[(3S)-3-(methoxymethyl)piperazin-1-yl]-3,4-dihydro-2H-1-benzopyran-3-yl]-6-methylthieno[2,3-b]pyridine-2-carboxamide] | 6.70 to 7.30 |
| COC[C@@H]1CN(c2ccc3c(c2)OC[C@H](NC(=O)c2sc4nc(C)ccc4c2N)C3)C[C@H]1N [Example 163, 3-amino-N-[(3R)-7-[(3S,4R)-3-amino-4-(methoxymethyl)pyrrolidin-1-yl]-3,4-dihydro-2H-1-benzopyran-3-yl]-6-methylthieno[2,3-b]pyridine-2-carboxamide] | 7.30 to 9.00 |
| CCn1ccc2cc(C(=O)N[C@H]3CCc4cc(N5C[C@H](OC)[C@@H](N)C5)cc(F)c4C3)nnc21 [Example 138, N-[(2S)-6-[(3S,4S)-3-amino-4-methoxypyrrolidin-1-yl]-8-fluoro-1,2,3,4-tetrahydronaphthalen-2-yl]-7-ethyl-7H-pyrrolo[2,3-c]pyridazine-3-carboxamide] | < 5.70 |
| Cc1ccc2c(N)c(C(=O)N[C@H]3CCc4cc(N5CC6CNCC(C5)O6)c(F)cc4C3)sc2n1 [Example 101, 3-amino-N-[(2S)-7-fluoro-6-{9-oxa-3,7-diazabicyclo[3.3.1]nonan-3-yl}-1,2,3,4-tetrahydronaphthalen-2-yl]-6-methylthieno[2,3-b]pyridine-2-carboxamide] | 7.30 to 9.00 |
| Cc1ccc2c(N)c(C(=O)N[C@H]3COc4cc(N5CC6CNCC(C5)O6)c(C#N)c(F)c4C3)sc2n1 [Example 127, 3-amino-N-[(3R)-6-cyano-5-fluoro-7-{9-oxa-3,7-diazabicyclo[3.3.1]nonan-3-yl}-3,4-dihydro-2H-1-benzopyran-3-yl]-6-methylthieno[2,3-b]pyridine-2-carboxamide] | 7.30 to 9.00 |
| CCO[C@H]1CN(c2ccc3c(c2)OC[C@H](NC(=O)c2sc4nc(C)ccc4c2N)C3)C[C@H]1N [Example 152] | 7.30 to 9.00 |
| Cc1ccc2c(N)c(C(=O)N[C@H]3COc4cc(N5C[C@H](N)[C@H](C(F)F)C5)ccc4C3)sc2n1 [Example 167, 3-amino-N-[(3R)-7-[(3R,4R)-3-amino-4-(difluoromethyl)pyrrolidin-1-yl]-3,4-dihydro-2H-1-benzopyran-3-yl]-6-methylthieno[2,3-b]pyridine-2-carboxamide] | 7.30 to 9.00 |
| Cc1nc2sc(C(=O)N[C@H]3COc4cc(N5CC6CCC(C5)N6)c(F)c(F)c4C3)c(N)c2s1 [Example 108, 6-amino-N-[(3R)-7-{3,8-diazabicyclo[3.2.1]octan-3-yl}-5,6-difluoro-3,4-dihydro-2H-1-benzopyran-3-yl]-2-methylthieno[2,3-d][1,3]thiazole-5-carboxamide] | 7.30 to 9.00 |
| Cc1ccc2c(N)c(C(=O)N[C@H]3COc4cc(N5C[C@H](OC6CC6)[C@@H](N)C5)ccc4C3)sc2n1 [Example 140, 3-amino-N-[(3R)-7-[(3S,4S)-3-amino-4-cyclopropoxypyrrolidin-1-yl]-3,4-dihydro-2H-1-benzopyran-3-yl]-6-methylthieno[2,3-b]pyridine-2-carboxamide] | 7.30 to 9.00 |
| Cc1ccc2c(N)c(C(=O)N[C@@H]3CCc4c(ccc(N5CC6CNCC(C5)O6)c4F)C3)sc2n1 [Example 100, 3-amino-N-[(2R)-5-fluoro-6-{9-oxa-3,7-diazabicyclo[3.3.1]nonan-3-yl}-1,2,3,4-tetrahydronaphthalen-2-yl]-6-methylthieno[2,3-b]pyridine-2-carboxamide] | 6.70 to 7.30 |
| Cc1ccc2c(N)c(C(=O)N[C@H]3COc4cc(N5C[C@@H]6OCCN[C@@H]6C5)ccc4C3)sc2n1 [Example 154, N-[(3R)-7-[(4aR,7aS)-octahydropyrrolo[3,4-b]morpholin-6-yl]-3,4-dihydro-2H-1-benzopyran-3-yl]-3-amino-6-methylthieno[2,3-b]pyridine-2-carboxamide] | 6.70 to 7.30 |
| Cc1ccc2c(N)c(C(=O)N[C@H]3COc4c(F)c(N5C[C@@H]6C[C@H]5CN6)cc(F)c4C3)sc2n1 [Example 110, 3-amino-N-[(3R)-7-[(1S,4S)-2,5-diazabicyclo[2.2.1]heptan-2-yl]-5,8-difluoro-3,4-dihydro-2H-1-benzopyran-3-yl]-6-methylthieno[2,3-b]pyridine-2-carboxamide] | 7.30 to 9.00 |
| COC[C@H]1CNCCN1c1ccc2c(c1)OC[C@H](NC(=O)c1sc3nc(C)ccc3c1N)C2 [Example 156, 3-amino-N-[(3R)-7-[(21)-2-(methoxymethyl)piperazin-1-yl]-3,4-dihydro-2H-1-benzopyran-3-yl]-6-methylthieno[2,3-b]pyridine-2-carboxamide] | 6.70 to 7.30 |
| Cc1ccc2c(N)c(C(=O)N[C@H]3COc4cc(N5C[C@@H](N)[C@@H](C(F)F)C5)ccc4C3)sc2n1 [Example 168, 3-amino-N-[(3R)-7-[(3S,4S)-3-amino-4-(difluoromethyl)pyrrolidin-1-yl]-3,4-dihydro-2H-1-benzopyran-3-yl]-6-methylthieno[2,3-b]pyridine-2-carboxamide] | 7.30 to 9.00 |
| CO[C@@H]1CN(c2cc(F)c3c(c2)OC[C@H](NC(=O)c2sc4nc(C)ccc4c2N)C3)C[C@@H]1N [Example 145, 3-amino-N-[(3R)-7-[(3S,4R)-3-amino-4-methoxypyrrolidin-1-yl]-5-fluoro-3,4-dihydro-2H-1-benzopyran-3-yl]-6-methylthieno[2,3-b]pyridine-2-carboxamide] | 7.30 to 9.00 |
| Cc1ccc2c(N)c(C(=O)N[C@H]3COc4c(C#N)c(N5CC6CNCC(C5)O6)cc(F)c4C3)sc2n1 [Example 96, 3-amino-N-[(3R)-8-cyano-5-fluoro-7-{9-oxa-3,7-diazabicyclo[3.3.1]nonan-3-yl}-3,4-dihydro-2H-1-benzopyran-3-yl]-6-methylthieno[2,3-b]pyridine-2-carboxamide] | 7.30 to 9.00 |
| CO[C@H]1CN(c2cc(F)c3c(c2)CC[C@@H](NC(=O)c2sc4nc(C)ccc4c2N)C3)C[C@@H]1N [Example 137, 3-amino-N-[(2R)-6-[(3S,4S)-3-amino-4-methoxypyrrolidin-1-yl]-8-fluoro-1,2,3,4-tetrahydronaphthalen-2-yl]-6-methylthieno[2,3-b]pyridine-2-carboxamide] | 6.70 to 7.30 |
| Cc1ccc2c(N)c(C(=O)N[C@H]3COc4cc(N5C[C@@H]6C[C@H]5CN6)c(F)c(F)c4C3)sc2n1 [Example 112, 3-amino-N-[(3R)-7-[(1S,4S)-2,5-diazabicyclo[2.2.1]heptan-2-yl]-5,6-difluoro-3,4-dihydro-2H-1-benzopyran-3-yl]-6-methylthieno[2,3-b]pyridine-2-carboxamide] | 7.30 to 9.00 |
| COc1ccc2c(N)c(C(=O)N[C@H]3CCc4cc(N5C[C@H](OC)[C@@H](N)C5)ccc4C3)sc2n1 [Example 134, 3-amino-N-[(2S)-6-[(3S,4S)-3-amino-4-methoxypyrrolidin-1-yl]-1,2,3,4-tetrahydronaphthalen-2-yl]-6-methoxythieno[2,3-b]pyridine-2-carboxamide] | 5.70 to 6.70 |
| CO[C@H]1CN(c2ccc3c(c2)OC[C@H](NC(=O)c2sc4nc(C)ccc4c2N)C3)C[C@H]1N [Example 122, 3-amino-N-[(3R)-7-[(3R,4S)-3-amino-4-methoxypyrrolidin-1-yl]-3,4-dihydro-2H-1-benzopyran-3-yl]-6-methylthieno[2,3-b]pyridine-2-carboxamide] | 7.30 to 9.00 |
